Results taken from the CheMixHub viscosity set.
Where “and” joins values, the source holds several entries; their conditions need not be identical. Equal values may be shown once.

Assay: xn = mol fraction of the nth substance listed

CCCCC(CC)COP(=O)(O)OCC(CC)CCCC (stereo not given) + CO
303.15 K, 101 kPa
Settings | viscosity [mPa·s]
x1 = 0.0413 | 1.349
x1 = 0.0751 | 2.075
x1 = 0.1088 | 2.893
x1 = 0.1723 | 4.725
x1 = 0.2681 | 7.099
x1 = 0.3639 | 9.284
x1 = 0.4602 | 11.18
x1 = 0.6161 | 13.99
x1 = 0.7023 | 15.23
x1 = 0.8292 | 17.17
x1 = 0.928 | 18.67

C[N+](=O)[O-] + CO
viscosity [mPa·s]
Settings | 293.15 K | 298.15 K | 303.15 K | 313.15 K
101 kPa, x1 = 0.0771 | – | 0.5277 | – | –
101 kPa, x1 = 0.1586 | – | 0.5151 | – | –
101 kPa, x1 = 0.216 | – | 0.503 | – | –
101 kPa, x1 = 0.238 | – | 0.502 | – | –
101 kPa, x1 = 0.24 | – | 0.501 | – | –
101 kPa, x1 = 0.244 | – | 0.5 | – | –
101 kPa, x1 = 0.2441 | – | 0.5082 | – | –
101 kPa, x1 = 0.3345 | – | 0.5081 | – | –
101 kPa, x1 = 0.4298 | – | 0.5102 | – | –
101 kPa, x1 = 0.496 | – | 0.495 | – | –
101 kPa, x1 = 0.5305 | – | 0.5169 | – | –
101 kPa, x1 = 0.539 | – | 0.497 | – | –
101 kPa, x1 = 0.579 | – | 0.5 | – | –
101 kPa, x1 = 0.6375 | – | 0.5265 | – | –
101 kPa, x1 = 0.7509 | – | 0.5426 | – | –
101 kPa, x1 = 0.861 | – | 0.55 | – | –
101 kPa, x1 = 0.863 | – | 0.55 | – | –
101 kPa, x1 = 0.8715 | – | 0.5721 | – | –
101 kPa, x1 = 0.875 | – | 0.554 | – | –
101.33 kPa, x2 = 0.0503 | 0.617 | – | 0.551 | 0.493
101.33 kPa, x2 = 0.1004 | 0.596 | – | 0.528 | 0.473
101.33 kPa, x2 = 0.15 | 0.575 | – | 0.511 | 0.458
101.33 kPa, x2 = 0.2003 | 0.561 | – | 0.498 | 0.445
101.33 kPa, x2 = 0.2501 | 0.552 | – | 0.489 | 0.435
101.33 kPa, x2 = 0.3 | 0.542 | – | 0.479 | 0.427
101.33 kPa, x2 = 0.3502 | 0.536 | – | 0.474 | 0.421
101.33 kPa, x2 = 0.4 | 0.531 | – | 0.469 | 0.416
101.33 kPa, x2 = 0.4501 | 0.527 | – | 0.464 | 0.412
101.33 kPa, x2 = 0.5 | 0.525 | – | 0.461 | 0.408
101.33 kPa, x2 = 0.55 | 0.524 | – | 0.459 | 0.406
101.33 kPa, x2 = 0.6001 | 0.524 | – | 0.459 | 0.405
101.33 kPa, x2 = 0.65 | 0.525 | – | 0.458 | 0.405
101.33 kPa, x2 = 0.7 | 0.526 | – | 0.461 | 0.406
101.33 kPa, x2 = 0.7501 | 0.53 | – | 0.463 | 0.409
101.33 kPa, x2 = 0.8 | 0.538 | – | 0.468 | 0.412
101.33 kPa, x2 = 0.8501 | 0.545 | – | 0.474 | 0.417
101.33 kPa, x2 = 0.9 | 0.553 | – | 0.482 | 0.423
101.33 kPa, x2 = 0.95 | 0.566 | – | 0.491 | 0.432

N + CO
viscosity [mPa·s], 100 kPa
Settings | 303 K | 313 K
x1 = 0.16 | 0.48 | 0.4
x1 = 0.23 | 0.48 | 0.39

C[N+](=O)[O-] + COC(C)=O
298.15 K, 101 kPa
Settings | viscosity [mPa·s]
x1 = 0.1415 | 0.4094
x1 = 0.271 | 0.4445
x1 = 0.3891 | 0.4757
x1 = 0.498 | 0.5048
x1 = 0.5977 | 0.5313
x1 = 0.6903 | 0.5553
x1 = 0.7763 | 0.5776
x1 = 0.8562 | 0.5968
x1 = 0.9303 | 0.6147

C[N+](=O)[O-] + CS(C)=O
viscosity [mPa·s], 101.3 kPa
Settings | x2 = 0.1135 | x2 = 0.117 | x2 = 0.2337 | x2 = 0.2468 | x2 = 0.432 | x2 = 0.4324 | x2 = 0.5837 | x2 = 0.5943 | x2 = 0.812 | x2 = 0.8156
298 K | 0.726 | – | 0.823 | – | 1.014 | – | – | 1.229 | 1.613 | –
318 K | – | 0.5753 | – | 0.6471 | – | 0.7717 | 0.8878 | – | – | 1.12

Cc1cccc(O)c1 + C[N+](C)(C)CCO.[Cl-]
298.15 K, 101.33 kPa
Settings | viscosity
x1 = 0.7 | 138.1 mPa·s
x1 = 0.8 | 74.18 mPa·s and 56.16 mPa·s and 49.24 mPa·s
x1 = 0.9 | 39.12 mPa·s

C[Si]1(C)O[Si](C)(C)O[Si](C)(C)O[Si](C)(C)O[Si](C)(C)O[Si](C)(C)O1 + C[Si](C)(C)O[Si](C)(C)O[Si](C)(C)O[Si](C)(C)C
Settings | viscosity [mPa·s]
298.15 K, 101 kPa, x2 = 0.457 | 3.47

C[N+](=O)[O-] + Cc1ccc(C)cc1
293.15 K, 101.33 kPa
Settings | viscosity [mPa·s]
x1 = 0.1151 | 0.632
x1 = 0.2724 | 0.628
x1 = 0.4256 | 0.626
x1 = 0.481 | 0.625
x1 = 0.6051 | 0.625
x1 = 0.6915 | 0.626
x1 = 0.794 | 0.627
x1 = 0.8837 | 0.632

C[N+](=O)[O-] + Cc1ccccc1
298.15 K, 101 kPa
Settings | viscosity [mPa·s]
x1 = 0.1803 | 0.5448
x1 = 0.3318 | 0.5368
x1 = 0.4595 | 0.5331
x1 = 0.5699 | 0.534
x1 = 0.665 | 0.542
x1 = 0.7483 | 0.5534
x1 = 0.8226 | 0.5683
x1 = 0.888 | 0.5861
x1 = 0.9472 | 0.6066

Cc1cccc(O)c1 + Cc1ccccc1
308.15 K, 101 kPa
Settings | viscosity [mPa·s]
x1 = 0.0892 | 0.5693
x1 = 0.198 | 0.7009
x1 = 0.3227 | 0.9138
x1 = 0.4371 | 1.215
x1 = 0.5644 | 1.71
x1 = 0.6801 | 2.44
x1 = 0.7905 | 3.416
x1 = 0.8866 | 4.871
x1 = 0.9596 | 6.414
